This is an account of results in patent publication US11591342B2, “Heterocyclic compound, application thereof and pharmaceutical composition comprising same” (SUZHOU SINOVENT PHARMACEUTICALS CO., LTD., priority 2018, dated 2023).

The assay deals with Autotaxin (ATX) (Homo sapiens (Human), UniProt Q13822). The assay can be described thus: ATX bioactivity assay (Amplex Red / choline oxidase / HRP fluorescence, LPC 16:0 substrate). As to conditions: 30 min room temperature. In kind it is biochemical. The method, then: Effect Example 1 Bioactivity Assay
Preparation and Treatment
Stock Solution Preparation
A 10 mM DMSO stock solution was formulated for each compound. A 30 mM DMSO stock solution was formulated for positive control HA130.
The DMSO stock solutions were stored at room temperature in a desiccator for a short period of time or at −20° C. for a long period of time.
All compounds were serially 3-fold diluted in DMSO from 10 μM to the 10th concentration.
A 1000× positive control (10 mM, HA130) and a 1000× negative control (100% DMSO) were prepared.
The plates were shaken for 5 min.
Preparation of 1× Reaction Buffer:
5× reaction buffer and cold water were mixed well in a volume ratio of 1:4.
Preparation of 20 U/mL Choline Oxidase Stock Solution:
1 tube of choline oxide in a kit was dissolved in 1× reaction buffer. The aliquots were frozen at −20° C.
Preparation of 200 U/mL Horseradish Peroxidase (HRP) Stock Solution:
1 tube of HRP in a kit was dissolved in 1 mL of 1× reaction buffer. The aliquots were frozen at −20° C.
Preparation of 20 mM Amplex® Red Reagent (for Detection) Stock Solution
Amplex Red reagent and DMSO were equilibrated at room temperature. 1 tube of Amplex Red reagent in a kit was dissolved in 200 μL of DMSO.
a) 2×ATX ([…]), 2×HRP ([…]), 2× choline oxidase (0.2 U/mL) were added to 1× reaction buffer.
b) 20 μL of the reaction mixture was added to the plate (PE, 6007270) (refer to step a).
c) 40 nL of diluent was added to the plate using Echo (refer to “Preparation”).
d) 2×LPC (16:0) (60 mM) and 2× Amplex® Red ([…]) were prepared using 1× reaction buffer.
e) 20 μL of the mixture was added to the plate (refer to step d).
f) The plate was shaken for 30 s and allowed to stand at room temperature for 30 min.
g) The plate was examined using Envision, and the procedure was as follows: Excitation at 530 nm; and Emission at 590 nm.
Formula for Calculating % Inhibition (Percent Inhibition Rate) as Follows:
FLU: Fluorescence (fluorescence reading)
FLUpositive: Average fluorescence value in positive control wells (10 μM HA130) in the plate.
FLUvehicle: Average fluorescence value in negative control wells (0.1% DMSO) in the plate.
Calculation of IC50 and Dose-Response Curve:
IC50 of the compounds was calculated via a non-linear regression line (dose-variable slope) fitted using % inhibition and log of compound concentration. The software used was Graphpad 5.0. Y=Bottom+(Top−Bottom)/(1+10^((Log IC50−X)×Hill Slope))
X: log of inhibitor concentration

`CCc1nn2ccc(N3CCN(CC(=O)N4CC(O)C4)CC3)cc2c1N(C)c1nc(-c2ccc(F)cc2)c(C#N)s1` [Compound S-0040, 2-((2-ethyl-5-(4-(2-(3-hydroxyazetidin-1-yl)-2-oxoethyl)piperazin-1-yl)pyrazolo[1,5-a]pyridin-3-yl)(methyl)amino)-4-(4-fluorophenyl)thiazole-5-carbonitrile] registered an IC50 of 767 nM.

With `CCc1nn2c(C)cc(N3CCN(CC(=O)N4CC(O)C4)C[C@H]3C)nc2c1N(C)c1nc(-c2ccc(F)cc2)c(C#N)s1` [Compound S-0070, (R)-2-((2-ethyl-5-(4-(2-(3-hydroxyazetidin-1-yl)-2-oxoethyl)-2-methylpiperazine-1-yl)-7-methylpyrazolo[1,5-a]pyrimidin-3-yl)(methyl)amino)-4-(4-fluorophenyl)thiazole-5-carbonitrile], the IC50 amounted to 36 nM.

With `CCc1nn2ccc(N3CCN(CC(=O)N4CC(O)C4)CC3)nc2c1N(CC)c1nc(-c2ccc(F)cc2)c(C#N)s1` [Compound S-0082, 2-(ethyl(2-ethyl-5-(4-(2-(3-hydroxyazetidin-1-yl)-2-oxoethyl)piperazin-1-yl)pyrazolo[1,5-a]pyrimidin-3-yl)amino)-4-(4-fluorophenyl)thiazole-5-carbonitrile], 20 nM corresponded to half-maximal inhibition (IC50).

Molecule `CCc1nn2c(C)cc(N3CCN(CC(=O)N4CC(O)C4)CC3)nc2c1N(CC)c1nc(-c2ccc(F)cc2)c(C#N)s1` [Compound S-0069, 2-(ethyl(2-ethyl-5-(4-(2-(3-hydroxyazetidin-1-yl)-2-oxoethyl)piperazine-1-yl)-7-methylpyrazolo[1,5-a]pyrimidin-3-yl)amino)-4-(4-fluorophenyl) thiazole-5-carbonitrile] gave an IC50 of 43 nM.

As to `CCc1nn2c(C)cc(N3CCN(CC(=O)N4CC(O)C4)[C@@H](C)C3)nc2c1N(C)c1nc(-c2ccc(F)cc2)c(C#N)s1` [Compound S-0075, (S)-2-((2-ethyl-5-(4-(2-(3-hydroxyazetidin-1-yl)-2-oxoethyl)-3-methylpiperazin-1-yl)-7-methylpyrazolo[1,5-a]pyrimidin-3-yl)(methyl)amino)-4-(4-fluorophenyl)thiazole-5-carbonitrile], the IC50 stood at 88 nM.

In the case of `CC(C)n1nc2c(F)cc(N3CCN(CC(=O)N4CC(O)C4)CC3)cc2c1N(C)c1nc(-c2ccc(F)cc2)c(C#N)s1` [Compound S-0125, 2-((7-fluoro-5-(4-(2-(3-hydroxyazetidin-1-yl)-2-oxoethyl)piperazin-1-yl)-2-isopropyl-2H-indazol-3-yl)(methyl)amino)-4-(4-fluorophenyl)thiazole-5-carbonitrile], the IC50 was 178 nM.

Broadly, the IC50 is the concentration that gives 50% inhibition. Higher therefore signals a need for much substance.
